Laboratory results from patent US5034530A, “Imidazoquinoxaline compounds and their preparation and use” (Novo Nordisk A/S, priority 1988, dated 1991).

System: benzodiazepine receptors
Test: in vivo displacement of 3H-flunitrazepam specific binding from brain benzodiazepine receptors in mice
Conditions: dose reducing specific 3H-flunitrazepam binding in living mouse brain to 50% of control; test substance i.p. 15 min before i.v. 3H-FNM; female mice; forebrain
From the text: The pharmaceutical properties of the compounds of the invention can be illustrated by determining their capability for displacing radioactive labelled flunitrazepam from benzodiazepine receptors.
The displacement activity of the compounds of the invention may be found by determining the ED50 value. The ED50 value represents the dose (mg/kg) of a test substance which causes the specific binding of flunitrazepam to benzodiazepine receptors in a living brain to be reduced to 50% of the control value.
Such an in vivo test is carried out as follows:
Principle. Twenty minutes after a dose of ^3 H-flunitrazepam (^3 H-FNM) (200 μCi/kg, i.v.) the amount of specific ^3 H-FNM binding to brain benzodiazepine receptors has reached its maximal value.
Test procedure. Suspensions of test substances (2 mg/ml) are prepared in 5% Duphasol-X (TM Duphar, castor oil-ethylene oxide derivative for emulsifying and solubilizing oil and other water-insoluble substances) by sonification for 10 min using a Branson B15 microtip ultrasonifier (setting 7). Groups of three mice (female, NMR, 18-22 grams) are injected with the test substance at 100 mg/kg intraperitoneally. Fifteen minutes after test substance administration the mice are challenged with 4 μCi intravenously of ^3 H-FNM (70-90 Ci/mole) in 200 μl physiological saline. Twenty minutes after ^3 H-FNM administration mice are sacrificed by decapitation, the forebrains rapidly excised (within 30 sec) and homogenized in 12 ml of icecold 25 mM KH2 PO4, pH 7.1, using an Ultra-Turrax homogenizer fitted with an N 10 shaft. […] The amounts of radioactivity on the filters are determined by conventional scintillation counting. […]
Results. The ED50 value is determined from dose response curves. If only one dose of test substance is administered the ED50 value is calculated as follows, provided that the inhibition of specific binding is within the range of 25-75%: [formula] where Co is specific binding in controls and Cx is specific binding in mice treated with test substance.

Row | Compound | ED50 [mg/kg]
1 | Cc1nc2ccccc2n2cnc(-c3noc(C4CC4)n3)c12 [Compound 7, 3-(5-Cyclopropyl-1,2,4-oxadiazol-3-yl)-4-methyl-imidazo[1,5-a]quinoxaline] | 1.3
2 | Cc1nc(-c2ncn3c2c(C)nc2ccccc23)no1 [Compound 8, 4-Methyl-3-(5-methyl-1,2,4-oxadiazol-3-yl)-imidazo[1,5-a]quinoxaline] | 1.8
3 | Cc1nc2ccccc2n2cnc(-c3nc(C4CC4)no3)c12 [Compound 10, 3-(3-Cyclopropyl-1,2,4-oxadiazol-5-yl)-4-methyl-imidazo[1,5-a]quinoxaline] | 3.5
